# Experimental data as given in PubChem BioAssay AID1963986 (Molecular Pharmacology Branch, DTP, NCI, 2024).
# Tested on: 171881-019-R-J1-PDC tumor spheroid viability
# Test: Anticancer human tumor 171881-019-R-J1-PDC patient-derived invasive breast carcinoma cell line growth inhibition [PI3K]
# Conditions: spheroids with HUVEC and MSC; for IC50: curve of first compound; for viability, T/C: stronger effect = lower value
# Procedure, shortened: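 Tumor cells were combined with HUVEC and MSCs into spheroids, then dosed with PI3K-inhibitor combinations over half-log ranges capped near clinical Cmax or 10 microM.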
# [1] = second compound 0.0316 µM, first compound 0.0316 µM
# [2] = second compound 0.0316 µM, first compound 0.1 µM
# [3] = second compound 0.0316 µM, first compound 0.316 µM
# [4] = second compound 0.0316 µM, first compound 1 µM
# [5] = second compound 0.0316 µM, first compound 3.16 µM
# [6] = second compound 0.0316 µM, first compound 10 µM
# [7] = second compound 0.1 µM, first compound 0.0316 µM
# [8] = second compound 0.1 µM, first compound 0.1 µM
# [9] = second compound 0.1 µM, first compound 0.316 µM
# [10] = second compound 0.1 µM, first compound 1 µM
# [11] = second compound 0.1 µM, first compound 3.16 µM
# [12] = second compound 0.1 µM, first compound 10 µM
# [13] = second compound 0.316 µM, first compound 0.0316 µM
# [14] = second compound 0.316 µM, first compound 0.1 µM
# [15] = second compound 0.316 µM, first compound 0.316 µM
# [16] = second compound 0.316 µM, first compound 1 µM
# [17] = second compound 0.316 µM, first compound 3.16 µM
# [18] = second compound 0.316 µM, first compound 10 µM
# [19] = second compound 1 µM, first compound 0.0316 µM
# [20] = second compound 1 µM, first compound 0.1 µM
# [21] = second compound 1 µM, first compound 0.316 µM
# [22] = second compound 1 µM, first compound 1 µM
# [23] = second compound 1 µM, first compound 3.16 µM
# [24] = second compound 1 µM, first compound 10 µM
# [25] = second compound 3.16 µM, first compound 0.0316 µM
# [26] = second compound 3.16 µM, first compound 0.1 µM
# [27] = second compound 3.16 µM, first compound 0.316 µM
# [28] = second compound 3.16 µM, first compound 1 µM
# [29] = second compound 3.16 µM, first compound 3.16 µM
# [30] = second compound 3.16 µM, first compound 10 µM
# [31] = second compound 10 µM, first compound 0.0316 µM
# [32] = second compound 10 µM, first compound 0.1 µM
# [33] = second compound 10 µM, first compound 0.316 µM
# [34] = second compound 10 µM, first compound 1 µM
# [35] = second compound 10 µM, first compound 3.16 µM
# [36] = second compound 10 µM, first compound 10 µM
# 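Also: spheroids exposed to compound for 7 days before viability read.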
# 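For viability, T/C in this document: 100% = DMSO vehicle-treated spheroids.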
compound,measurement,setting,value
CC1(C)CCC(CN2CCN(c3ccc(C(=O)NS(=O)(=O)c4ccc(NCC5CCOCC5)c([N+](=O)[O-])c4)c(Oc4cnc5[nH]ccc5c4)c3)CC2)=C(c2ccc(Cl)cc2)C1 + CC(Nc1ncnc2nc[nH]c12)c1cc2cccc(Cl)c2c(=O)n1-c1ccccc1,IC50,second compound 0.0316 µM,4.13 µM
same,IC50,second compound 0.1 µM,3.98 µM
same,IC50,second compound 0.316 µM,3.97 µM
same,IC50,second compound 1 µM,4.01 µM
same,IC50,second compound 3.16 µM,2.59 µM
same,IC50,second compound 10 µM,1.49 µM
same,"viability, T/C",[1],88.6%
same,"viability, T/C",[2],80.2%
same,"viability, T/C",[3],80.3%
same,"viability, T/C",[4],76%
same,"viability, T/C",[5],61.9%
same,"viability, T/C",[6],14.3%
same,"viability, T/C",[7],89.7%
same,"viability, T/C",[8],89.9%
same,"viability, T/C",[9],74.5%
same,"viability, T/C",[10],72.6%
same,"viability, T/C",[11],64.1%
same,"viability, T/C",[12],11.7%
same,"viability, T/C",[13],90.4%
same,"viability, T/C",[14],88.2%
same,"viability, T/C",[15],81.9%
same,"viability, T/C",[16],97.3%
same,"viability, T/C",[17],59.2%
same,"viability, T/C",[18],12.4%
same,"viability, T/C",[19],92.1%
same,"viability, T/C",[20],88.3%
same,"viability, T/C",[21],81.4%
same,"viability, T/C",[22],84.8%
same,"viability, T/C",[23],59.9%
same,"viability, T/C",[24],10.8%
same,"viability, T/C",[25],84.5%
same,"viability, T/C",[26],87.9%
same,"viability, T/C",[27],85%
same,"viability, T/C",[28],75.7%
same,"viability, T/C",[29],44.6%
same,"viability, T/C",[30],11.4%
same,"viability, T/C",[31],64.5%
same,"viability, T/C",[32],55.9%
same,"viability, T/C",[33],57%
same,"viability, T/C",[34],57%
same,"viability, T/C",[35],37.7%
same,"viability, T/C",[36],9.06%
CCCS(=O)(=O)Nc1ccc(F)c(C(=O)c2c[nH]c3ncc(-c4ccc(Cl)cc4)cc23)c1F + CC(Nc1ncnc2nc[nH]c12)c1cc2cccc(Cl)c2c(=O)n1-c1ccccc1,IC50,second compound 0.0316 µM,5.73 µM
same,IC50,second compound 0.1 µM,5.45 µM
same,IC50,second compound 0.316 µM,5.38 µM
same,IC50,second compound 1 µM,6 µM
same,IC50,second compound 3.16 µM,6.06 µM
same,IC50,second compound 10 µM,4.95 µM
same,"viability, T/C",[1],90.8%
same,"viability, T/C",[2],87.2%
same,"viability, T/C",[3],97.2%
same,"viability, T/C",[4],84.1%
same,"viability, T/C",[5],92.3%
same,"viability, T/C",[6],12.2%
same,"viability, T/C",[7],98.7%
same,"viability, T/C",[8],81.3%
same,"viability, T/C",[9],95%
same,"viability, T/C",[10],91.4%
same,"viability, T/C",[11],83.3%
same,"viability, T/C",[12],12.8%
same,"viability, T/C",[13],87.4%
same,"viability, T/C",[14],89.1%
same,"viability, T/C",[15],103%
same,"viability, T/C",[16],101%
same,"viability, T/C",[17],83.2%
same,"viability, T/C",[18],11.3%
same,"viability, T/C",[19],95.1%
same,"viability, T/C",[20],107%
same,"viability, T/C",[21],106%
same,"viability, T/C",[22],105%
same,"viability, T/C",[23],97.7%
same,"viability, T/C",[24],11.9%
same,"viability, T/C",[25],90.9%
same,"viability, T/C",[26],97%
same,"viability, T/C",[27],104%
same,"viability, T/C",[28],121%
same,"viability, T/C",[29],103%
same,"viability, T/C",[30],9.5%
same,"viability, T/C",[31],67.8%
same,"viability, T/C",[32],70.7%
same,"viability, T/C",[33],77.2%
same,"viability, T/C",[34],90.8%
same,"viability, T/C",[35],82.2%
same,"viability, T/C",[36],6.77%
